Here are results for 12 compounds from ChEMBL document CHEMBL1201862, “PubChem BioAssay data set” (2004).

Among the test systems are OVCAR-3; SR; OVCAR-8; M14; SW-620; NCI/ADR-RES; SK-OV-3; UACC-257; MDA-N; UO-31; HCT-15; LOX IMVI; DU-145; TK-10; MDA-MB-435; HL-60; OVCAR-4; UACC-62; BT-549.
What all share (test): NCI anticancer screen, dose series, 48 h

Where a name gives a salt, the structure may show the parent alone.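 The compound was tested at five concentrations on cells cultured in 96-well plates, with a 48-hour exposure period. Abbreviation: GI50, concentration required for 50% inhibition of growth.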 Calls of active or inactive are those of the source. Rule as the data show it: active = GI50 up to about 1.1 µM and inactive = higher.

For `CCOC(=O)C(NC(C)=O)(Nc1ccc(S(N)(=O)=O)cc1)C(F)(F)F` (stereo unspecified), the GI50 in the assay on OVCAR-3, in the assay on SR, in the assay on OVCAR-8, in the assay on M14, in the assay on SW-620 and in the assay with NCI/ADR-RES was > 100 µM (inactive) throughout. Besides, the GI50 was > 100 µM (inactive) in the assay on SK-OV-3; > 100 µM (inactive) with UACC-257; > 100 µM (inactive) with MDA-N; > 100 µM (inactive) in the assay on UO-31; above 100 µM in the assay with HCT-15; > 100 µM (inactive) with LOX IMVI. Further, the GI50 in the assay with DU-145, in the assay with TK-10, with MDA-MB-435, in the assay on HL-60 and in the assay with OVCAR-4 was > 100 µM (inactive) throughout.
As for `O=C1O/C(=C/c2ccccc2)C(c2ccccc2)=C1O`, the GI50 in the assay with OVCAR-3 was 19.8 µM (inactive); with OVCAR-8, 60.1 µM (inactive); in the assay with M14 it was 59.8 µM (inactive); in the assay with SW-620, 43.7 µM (inactive); with NCI/ADR-RES it was 34.7 µM (inactive); in the assay on SK-OV-3, 61.9 µM (inactive). In addition, the GI50 in the assay on UACC-257 is > 100 µM (inactive); with MDA-N it was 34 µM (inactive); in the assay with UO-31, 27 µM (inactive); with HCT-15, 34.4 µM; in the assay with LOX IMVI, 36.6 µM (inactive); in the assay on UACC-62, 18.5 µM (inactive). The GI50 was 26 µM (inactive) with DU-145; 75 µM (inactive) in the assay with TK-10; 29.8 µM (inactive) with MDA-MB-435; 20.1 µM (inactive) with HL-60; 55.3 µM (inactive) with OVCAR-4.
For `CC1(C)CC(=O)C(=CNc2nc(-c3ccccc3)cs2)C(=O)C1`, the GI50 was 40.7 µM (inactive) in the assay on OVCAR-3; 48.6 µM (inactive) with OVCAR-8; 41.1 µM (inactive) with M14; 31.4 µM (inactive) with SW-620; 34.4 µM (inactive) with NCI/ADR-RES; > 100 µM (inactive) in the assay with SK-OV-3. The GI50 with UACC-257 is 35.1 µM (inactive); in the assay with MDA-N, 30.1 µM (inactive); in the assay on UO-31, 20.7 µM (inactive); with HCT-15, 20.2 µM; in the assay with LOX IMVI, > 100 µM (inactive); with DU-145 it was 57 µM (inactive). For the same compound, the GI50 was 24 µM (inactive) with TK-10, 24.9 µM (inactive) in the assay on MDA-MB-435, 47.9 µM (inactive) in the assay with HL-60 and 69.5 µM (inactive) in the assay on OVCAR-4.
`O=S(=O)(Oc1ccc2ccccc2c1-c1c(OS(=O)(=O)C(F)(F)F)ccc2ccccc12)C(F)(F)F`: the GI50 with OVCAR-3 is 41.8 µM (inactive); in the assay on SR it was 7.67 µM (inactive); in the assay with OVCAR-8 it was > 100 µM (inactive); in the assay on M14, 91.8 µM (inactive); in the assay on SW-620, > 100 µM (inactive); in the assay with NCI/ADR-RES, 84.5 µM (inactive). Also, the GI50 was > 100 µM (inactive) with SK-OV-3; 1.32 µM (inactive) in the assay on UACC-257; 37.8 µM (inactive) in the assay with UO-31; > 100 µM (inactive) with BT-549; 32.4 µM with HCT-15; > 100 µM (inactive) in the assay with UACC-62. The figures for the GI50 in the assay on MDA-MB-435, with HL-60 and in the assay on OVCAR-4 were 45.5 µM (inactive), 11.3 µM (inactive) and 4.2 µM (inactive), respectively.
With `CCOC(CN(C)C(=O)Nc1ccc(Cl)c(Cl)c1)OCC`, the GI50 with OVCAR-3, with SR, with OVCAR-8, in the assay with M14, with SW-620 and in the assay with NCI/ADR-RES was > 10 µM (inactive) each time. The GI50 is > 10 µM (inactive) with SK-OV-3; > 10 µM (inactive) with UACC-257; > 10 µM (inactive) with MDA-N; > 10 µM (inactive) in the assay with UO-31; above 10 µM in the assay with HCT-15; > 10 µM (inactive) in the assay on LOX IMVI. For the same compound, the GI50 in the assay on UACC-62, with DU-145, in the assay with TK-10, in the assay on MDA-MB-435, in the assay with HL-60 and with OVCAR-4 was > 10 µM (inactive) throughout.
`COC(=O)CCC1(CCC(=O)OC)CCCCCCC(CCC(=O)OC)(CCC(=O)OC)C(=O)C1=O`: the GI50 in the assay with OVCAR-3 is 55.3 µM (inactive); with OVCAR-8, > 100 µM (inactive); in the assay on M14, 74.1 µM (inactive); in the assay on NCI/ADR-RES, 81.5 µM (inactive); in the assay with SK-OV-3 it was > 100 µM (inactive); in the assay on UACC-257 it was > 100 µM (inactive). For the same compound, the GI50 is > 100 µM (inactive) with MDA-N; 44.4 µM (inactive) with UO-31; above 100 µM in the assay with HCT-15; > 100 µM (inactive) in the assay with LOX IMVI; > 100 µM (inactive) in the assay on UACC-62; > 100 µM (inactive) in the assay with DU-145. Moreover, the GI50 with TK-10 and in the assay on MDA-MB-435 was > 100 µM (inactive) each time.
As to `COCCOCN(C(=O)C1=CCC2(CC1)OCCO2)c1ccccc1I`, the GI50 with OVCAR-3, in the assay on SR, with OVCAR-8, with M14, in the assay with SW-620 and in the assay with NCI/ADR-RES was > 50 µM (inactive) in each case. Further, the GI50 was > 50 µM (inactive) in the assay on SK-OV-3; > 50 µM (inactive) in the assay with UACC-257; > 50 µM (inactive) in the assay on MDA-N; > 50 µM (inactive) with UO-31; above 50 µM in the assay on HCT-15; > 50 µM (inactive) in the assay with LOX IMVI. The GI50 in the assay with UACC-62, in the assay on DU-145, with TK-10, in the assay with MDA-MB-435 and with OVCAR-4 was > 50 µM (inactive) throughout.
`O=c1cc(-c2ccccc2F)[nH]c2ccc(N3CCCC3)cc12`: the GI50 with SR was 0.498 µM (active); in the assay on OVCAR-8, 0.0624 µM (active); with M14, 0.0301 µM (active); in the assay with SW-620, < 0.001 µM (active); in the assay on NCI/ADR-RES, 0.0352 µM (active); in the assay on SK-OV-3 it was > 100 µM (inactive). Further, the GI50 was 0.1 µM (active) with UACC-257; 0.0135 µM (active) in the assay on MDA-N; 0.00274 µM (active) in the assay on UO-31; 0.033 µM with HCT-15; 0.0398 µM (active) in the assay with LOX IMVI; 0.0185 µM (active) in the assay on UACC-62. The GI50 with DU-145 is 0.0535 µM (active); in the assay on TK-10 it was 0.237 µM (active); with MDA-MB-435, < 0.001 µM (active); in the assay with HL-60 it was > 100 µM (inactive); in the assay on OVCAR-4, 0.0269 µM (active).
For the compound `CC1=C(C(=O)CC(=O)C(=O)Nc2cccc(Cl)c2C)Sc2ccccc2N1`, the GI50 in the assay with OVCAR-3, with SR, with OVCAR-8, with M14, with SW-620 and in the assay with SK-OV-3 was > 100 µM (inactive) each time. In addition, the GI50 was > 100 µM (inactive) in the assay on UACC-257; > 100 µM (inactive) in the assay with UO-31; above 100 µM with HCT-15; > 100 µM (inactive) in the assay with LOX IMVI; > 100 µM (inactive) with UACC-62; > 100 µM (inactive) in the assay with TK-10. Besides, the GI50 in the assay with HL-60 and with OVCAR-4 was > 100 µM (inactive) in each case.
As for `CC(CN1c2ccccc2Sc2ccccc21)N(C)C` (stereo unspecified) [PROMETHAZINE HYDROCHLORIDE], the GI50 is 16.5 µM (inactive) with OVCAR-3; 21.8 µM (inactive) with SR; 16.2 µM (inactive) in the assay with OVCAR-8; 17.3 µM (inactive) with M14; 23.6 µM (inactive) with SW-620; 15.8 µM (inactive) with NCI/ADR-RES. Moreover, the GI50 in the assay with SK-OV-3 is 18.3 µM (inactive); in the assay with UACC-257, 23.9 µM (inactive); in the assay with UO-31, 17.9 µM (inactive); in the assay on HCT-15 it was 17.5 µM; in the assay on LOX IMVI, 18.9 µM (inactive); in the assay on UACC-62 it was 19 µM (inactive). For the same compound, the GI50 in the assay with DU-145 is 19.4 µM (inactive); in the assay on MDA-MB-435 it was 16.9 µM (inactive); in the assay with HL-60 it was 22.7 µM (inactive); in the assay with OVCAR-4 it was 16.4 µM (inactive).
Regarding `CC1OCC2OC(C)OC(C3C4=C(CC(C)(C)CC4=O)OC4=C3C(=O)CC(C)(C)C4)C2O1` (stereo unspecified), the GI50 in the assay with OVCAR-3, in the assay with SR, in the assay with OVCAR-8, with M14, with SW-620 and in the assay on NCI/ADR-RES was > 100 µM (inactive) throughout. Moreover, the GI50 is > 100 µM (inactive) in the assay on SK-OV-3; > 100 µM (inactive) with UACC-257; > 100 µM (inactive) in the assay with MDA-N; > 100 µM (inactive) in the assay with UO-31; above 100 µM in the assay on HCT-15; > 100 µM (inactive) with LOX IMVI. In addition, the GI50 in the assay with UACC-62, with DU-145, in the assay on TK-10, in the assay with MDA-MB-435 and with HL-60 was > 100 µM (inactive) in each case.
For `OC1(c2ccccc2)CCCCCCCCC(O)(c2ccccc2)CCCCCCCC1` (stereo unspecified), the GI50 in the assay with OVCAR-3, in the assay with SR, in the assay on OVCAR-8, with M14, with SW-620 and in the assay with NCI/ADR-RES was > 100 µM (inactive) throughout. In addition, the GI50 in the assay on SK-OV-3 was > 100 µM (inactive); with UACC-257 it was > 100 µM (inactive); in the assay with MDA-N it was > 100 µM (inactive); with UO-31, > 100 µM (inactive); with HCT-15 it was above 100 µM; in the assay with LOX IMVI, > 100 µM (inactive). Moreover, the GI50 with UACC-62 is > 100 µM (inactive); in the assay on DU-145, > 100 µM (inactive); in the assay on TK-10 it was > 100 µM (inactive); in the assay with MDA-MB-435 it was > 100 µM (inactive); in the assay on HL-60, 59.2 µM (inactive); in the assay with OVCAR-4 it was > 100 µM (inactive).
